Experimental data as given in publication PMC7000521, “Hazard Characterization of Synthetic Cathinones Using Viability, Monoamine Reuptake, and Neuronal Activity Assays” (Frontiers in Neuroscience, 2020).
Like-named read-outs stand apart in the source and are kept apart here. Marks after values point to notes of the source that are not given here.

What was measured:
hDAT [1] = biological target: T1, hDAT (Homo sapiens, UniProt Q01959); assay: Monoamine uptake assay (fluorescent substrate), hDAT; type: cell-based
T1 construct: expressed in transfected cells
Protocol: (§1) Human embryonic kidney (HEK) 293 cells stably expressing human DAT, NET, or SERT (kindly provided by Dr. Hoener from F. Hoffmann-La Roche Ltd., Basel, Switzerland) were cultured as described in [Zwartsen et al. (2017)].
(§2) Uptake activity of hNET, hDAT, and hSERT was measured using the Neurotransmitter Transporter Uptake Assay Kit from MDS Analytical Technologies (Sunnyvale, CA, United States) as described in detail previously ([Zwartsen et al., 2017]). The kit contained a mixture consisting of a fluorescent substrate, which resembles the biogenic amine neurotransmitters, and a masking dye that extinguishes extracellular fluorescence. Uptake of the fluorescent substrate, a measure of neurotransmitter transporter function, increases intracellular fluorescence, while extracellular fluorescence is blocked by the masking dye ([Jorgensen et al., 2008]). The mixture was dissolved in Hank’s Balanced Salt Solution (1×) (HBSS) with 20 mM HEPES, and kept up to 1 week at −20°C.
On day 0, HEK 293 cells were seeded (60,000 cells/well) in clear-bottom black-walled 96-well plates coated with poly-L-lysine (PLL, 50 mg/L). On day 1, cells were pre-incubated with the fluorescent substrate mixture (95 μL/well, comprising of the fluorescent substrate and the extracellular masking dye, dissolved in HBSS) for 12 min (t = −12 to t = 0). During incubation, intracellular fluorescence was measured every 3 min. […] Stock solutions and dilutions were freshly prepared in HBSS (1×) at the day of usage. Effects of 3-MMC, 4-MMC, 4-MEC, methylone, pentedrone, MDPV, 3-MMCinternet, and 4-MECinternet were measured at final concentrations of 0.03–300/1000 μM. Fluorescence was measured with a microplate reader (Tecan Infinite M200 microplate; Tecan Trading Männedorf, Switzerland) at 37°C at 430/515 nm excitation/emission wavelength. For more experimental detail see [Zwartsen et al. (2017)].
Data from the monoamine uptake assay were analyzed as described by [Zwartsen et al. (2017)], with minor modifications. Data for α-PVP were reanalyzed from [Zwartsen et al. (2017)]. In short, the fluorescence of each well was background corrected and uptake was determined per well by calculating the change in fluorescence (ΔFU) at 12 min after drug exposure (t = 12) compared to the fluorescence at the start of exposure (t = 0), as a percentage of the fluorescence at the start of exposure (%ΔFU = ((FUt = 12−FUt = 0)/FUt = 0)∗100%; see [Zwartsen et al., 2017]). Plate-matched control values for each compound (e.g., methylone) above or below two times the standard deviation of the average normalized control value were considered outliers and were removed from analysis (4.8%). Thereafter, uptake in drug-exposed wells was expressed as a percentage of control wells on the same plate and all uptake values were scaled between 0 and 100%. Outliers (>mean ± 2×SD) in exposed groups were removed (2.7%) and uptake (% compared to control) was expressed as mean ± SEM of nwells from Nplates.
Concentration–response curves were made for transporter, MEA, and cell viability assays. To calculate IC50 values, a four-parameter logistic curve with a variable slope was used (Y = Bottom + (Top−Bottom)/(1 + 10∧((LogIC50 − X) ^∗ HillSlo pe))) (GraphPad Prism, version 7.04). When applicable, significance between concentrations and controls (for MEA) and different IC50 values [between different transporters (DAT/NET/SERT), MEA parameters (MSR/MBR/MNBR), exposure settings (acute/prolonged/recovery), and drug grade (pharmaceutical/internet)] were determined using unpaired t-tests (two values) or one-way ANOVA’s followed by a post hoc Dunnet’s test (>2 values). All statistical tests were performed using GraphPad Prism. For recovery of neuronal activity, IC50 values and 95% confidence intervals could not always be determined and are reported as higher than the highest concentration tested (e.g., >1000 μM). […]

[2] = tested on: rat primary cortical cultures; assay: MEA recordings of spontaneous neuronal network activity; type: cell-based; conditions: for IC50: value [CI]
Protocol: Rat pups born of timed-pregnant Wistar rats (Envigo, Horst, Netherlands) were sacrificed on postnatal day 0–1 to prepare cortical cultures grown on MEA plates as described previously ([Zwartsen et al., 2018], [2019]). Briefly, a 50 μL drop of cell suspension was added to each well (1 × 10^5 cells/well) of a 48-well MEA plate (Axion BioSystems Inc., Atlanta, GA, United States, M768-GL1-30Pt200) coated with 0.1% polyethyleneimine (PEI). After 2 h, 450 μL dissection medium was added to each well. The day after the isolation (day in vitro 1; DIV1), 450 μL/well dissection medium was replaced with 450 μL/well glutamate medium. At DIV4, 450 μL/well glutamate medium was replaced with 450 μL/well FBS medium (for medium supplements see [Zwartsen et al., 2018], [2019]). Cultures were kept in FBS medium at 37°C, 5% CO2/95% air atmosphere until use at DIV9-10.
Microelectrode array recordings were performed as described in [Zwartsen et al. (2019)]. In short, neuronal activity was measured using a Maestro 768-channel amplifier (Axion BioSystems Inc., Atlanta, GA, United States). Baseline spontaneous neuronal activity was recorded for 30 min at 37°C, after which wells were exposed to selected synthetic cathinones under sterile conditions. Next, neuronal activity was determined during a 30 min “acute exposure” recording. […] Next, exposure medium was replaced with fresh FBS medium and the plate was incubated for 19 h at 37°C, until the 30 min “washout” recording, i.e., 24 h after the start of the exposure.
Effects of 3-MMC, 4-MMC, 4-MEC, pentedrone, 3-MMCinternet, and 4-MECinternet were tested at 1–1000 μM (final concentration). At the day of exposure, stocks and dilutions were freshly made in NB-A FBS medium (for medium supplements see [Zwartsen et al., 2019]). Data on methylone, α-PVP, and MDPV exposure have been published previously in [Zwartsen et al. (2019)]. For each experimental condition, primary cultures from two to three different isolations were used and tested in four to five plates (Nplates). The number of wells (nwells) represents the number of replicates per condition.
Microelectrode array data were analyzed as described in [Zwartsen et al. (2019)]. In short, parameters of interest after acute exposure were expressed as a percentage of the parameters prior to exposure to obtain a treatment ratio for each well (paired comparison; parameterexposure/parameterbaseline as % of control wells). The parameters after prolonged exposure and washout were also expressed as a percentage of the baseline parameters. Next, treatment ratios were grouped per parameter, condition, drug [e.g., mean spike rate (MSR) 10 μM 3-MMC] and exposure scenario (acute, prolonged, or washout).
Outliers (>mean ± 2×SD) for MSR (5.0%) were used to exclude wells on all parameters. Outliers for mean burst rate (MBR; 2.6%) and mean network burst rate (MNBR; 1.4%) were used to exclude wells on specific parameters (burst, network burst, and synchronicity parameters, or network burst and synchronicity parameters, respectively). Finally, the acute, prolonged, and washout control treatment ratios were set to 100% and treatment ratios of exposed wells were normalized to the average treatment ratio of medium control wells of the corresponding parameter and exposure scenario. Treatment ratios of exposed wells were averaged per parameter (e.g., MSR), condition (e.g., 100 μM), drug (e.g., methylone), and exposure scenario (e.g., acute exposure) and used for further statistical analyses [see [Zwartsen et al. (2019)] for more details on criteria, parameters, and exposure scenarios]. Neuronal activity (as % of control) is expressed as mean ± SEM of nwells from Nplates. As the spike, burst, and network burst rates were among the most sensitive parameters, these parameters are presented in the manuscript. Additional parameters are presented in Supplementary Figure 2.
Concentration–response curves were made for transporter, MEA, and cell viability assays. […]

hSERT = biological target: T2, hSERT (Homo sapiens, UniProt P31645); conditions: cited from earlier work
T2 construct: expressed in transfected cells

[3] = Estimated human brain concentrations and comparison with IC50 values; conditions: recreational human blood/serum/plasma concentration multiplied with BPF
From the text: (§3) To correlate reported effect concentrations to expected concentrations in the human brain during recreational use a brain partitioning factor (BPF; […]) was applied, as actual human brain concentrations following recreational drug use are unknown. Expected concentrations in the human brain were estimated by multiplying recreational human blood/serum/plasma concentrations with the BPF. Human recreational blood, serum, or plasma levels were obtained from literature (driving under the influence or accidental non-fatal intoxications). The BPF was determined for each drug by dividing the brain concentration by the blood/serum/plasma concentration found in human post mortem reports, or animal studies (rat/mice) when human data were insufficient.
To identify the relevance of effects and potentially harmful drugs, effect concentrations (IC50 values) were related to the estimated human brain concentration during recreational use [(brain), Table 2]. By comparing these concentrations, the most relevant neurotoxic mechanisms of cathinones can be identified. […] Only 4-MEC and MDPV inhibited neuronal activity during acute exposure at concentrations within (MDPV) or close to (4-MEC) the estimated brain concentration.

[4] = recreational use (driving under the influence or accidental non-fatal intoxications); ref literature; cited from earlier work
hNET = biological target: T3, hNET (Homo sapiens, UniProt P23975); assay: Monoamine uptake assay (fluorescent substrate), hNET; type: cell-based
T3 construct: expressed in transfected cells
Protocol: as §1
as §2, with “The mixture was dissolved in Hank’s Balanced Salt Solution (1×) (HBSS) with 20 mM HEPES, and kept up to 1 week at −20°C.” left out
On day 0, HEK 293 cells were seeded (60,000 cells/well) in clear-bottom black-walled 96-well plates coated with poly-L-lysine (PLL, 50 mg/L). […] During incubation, intracellular fluorescence was measured every 3 min. […] Effects of 3-MMC, 4-MMC, 4-MEC, methylone, pentedrone, MDPV, 3-MMCinternet, and 4-MECinternet were measured at final concentrations of 0.03–300/1000 μM. Fluorescence was measured with a microplate reader (Tecan Infinite M200 microplate; Tecan Trading Männedorf, Switzerland) at 37°C at 430/515 nm excitation/emission wavelength. […]

[5] = Brain partitioning factor (BPF); conditions: brain concentration divided by blood/serum/plasma concentration from human post mortem reports or animal studies (rat/mice)
From the text: as §3

[6] = tested on: rat primary cortical cultures; design: method as in Zwartsen et al., 2019; conditions: 2019, cited from earlier work; for IC50: value [CI], published previously ref Zwartsen et al.
hDAT [7] = biological target: T1, hDAT; design: method as in Zwartsen et al., 2017; conditions: read-out: Transporter inhibition IC50, hDAT; HEK 293 cells; value [CI]; reanalyzed from previously published data ref Zwartsen et al., 2017; cited from earlier work
[8] = 19 h washout, 24 h after start of exposure, read-out: Neuronal activity IC50, mean burst rate (MBR), recovery
[9] = 19 h washout, 24 h after start of exposure, read-out: Neuronal activity IC50, mean network burst rate (MNBR), recovery
[10] = acute exposure 30 min, read-out: Neuronal activity IC50, mean burst rate (MBR), acute
[11] = acute exposure 30 min, read-out: Neuronal activity IC50, mean network burst rate (MNBR), acute
[12] = acute exposure 30 min, read-out: Neuronal activity IC50, mean spike rate (MSR), acute
[13] = washout, 24 h after start of exposure, read-out: Neuronal activity IC50, mean burst rate (MBR), recovery
[14] = washout, 24 h after start of exposure, read-out: Neuronal activity IC50, mean network burst rate (MNBR), recovery
[15] = washout, 24 h after start of exposure, read-out: Neuronal activity IC50, mean spike rate (MSR), recovery

T1 sequence (Q01959 whole entry): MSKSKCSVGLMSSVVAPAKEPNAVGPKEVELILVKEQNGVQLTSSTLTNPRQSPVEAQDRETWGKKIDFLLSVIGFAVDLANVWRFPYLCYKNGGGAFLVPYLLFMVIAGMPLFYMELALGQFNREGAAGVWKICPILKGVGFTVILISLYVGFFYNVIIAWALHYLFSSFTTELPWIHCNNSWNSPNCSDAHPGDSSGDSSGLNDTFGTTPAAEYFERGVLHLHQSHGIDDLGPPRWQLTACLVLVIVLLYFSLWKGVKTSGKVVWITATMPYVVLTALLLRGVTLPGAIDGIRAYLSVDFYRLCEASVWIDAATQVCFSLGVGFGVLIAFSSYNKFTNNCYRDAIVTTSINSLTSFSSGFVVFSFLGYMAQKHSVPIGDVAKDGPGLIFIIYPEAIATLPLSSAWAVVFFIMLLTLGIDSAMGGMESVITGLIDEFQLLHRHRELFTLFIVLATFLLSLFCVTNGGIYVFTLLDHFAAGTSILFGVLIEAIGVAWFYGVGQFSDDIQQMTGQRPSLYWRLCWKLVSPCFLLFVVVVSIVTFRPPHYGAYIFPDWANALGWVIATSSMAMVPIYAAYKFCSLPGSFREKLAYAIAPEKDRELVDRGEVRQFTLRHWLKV
T3 sequence (P23975 whole entry): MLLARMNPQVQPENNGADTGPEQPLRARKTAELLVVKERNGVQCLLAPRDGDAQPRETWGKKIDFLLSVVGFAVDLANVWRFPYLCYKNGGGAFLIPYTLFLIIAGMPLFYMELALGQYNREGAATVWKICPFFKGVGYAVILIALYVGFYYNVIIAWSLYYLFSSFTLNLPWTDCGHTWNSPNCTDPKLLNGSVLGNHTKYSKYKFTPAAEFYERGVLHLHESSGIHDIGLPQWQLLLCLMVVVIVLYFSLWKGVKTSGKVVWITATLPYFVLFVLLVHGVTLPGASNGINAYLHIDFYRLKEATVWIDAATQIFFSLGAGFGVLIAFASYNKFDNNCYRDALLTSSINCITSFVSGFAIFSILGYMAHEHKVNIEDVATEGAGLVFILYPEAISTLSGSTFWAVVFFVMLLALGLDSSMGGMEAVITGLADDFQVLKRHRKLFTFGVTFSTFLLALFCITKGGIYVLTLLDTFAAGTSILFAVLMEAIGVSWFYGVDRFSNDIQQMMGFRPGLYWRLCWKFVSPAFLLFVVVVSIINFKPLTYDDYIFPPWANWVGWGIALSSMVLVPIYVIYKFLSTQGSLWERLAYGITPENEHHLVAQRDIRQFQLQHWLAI
T2 sequence (P31645 whole entry): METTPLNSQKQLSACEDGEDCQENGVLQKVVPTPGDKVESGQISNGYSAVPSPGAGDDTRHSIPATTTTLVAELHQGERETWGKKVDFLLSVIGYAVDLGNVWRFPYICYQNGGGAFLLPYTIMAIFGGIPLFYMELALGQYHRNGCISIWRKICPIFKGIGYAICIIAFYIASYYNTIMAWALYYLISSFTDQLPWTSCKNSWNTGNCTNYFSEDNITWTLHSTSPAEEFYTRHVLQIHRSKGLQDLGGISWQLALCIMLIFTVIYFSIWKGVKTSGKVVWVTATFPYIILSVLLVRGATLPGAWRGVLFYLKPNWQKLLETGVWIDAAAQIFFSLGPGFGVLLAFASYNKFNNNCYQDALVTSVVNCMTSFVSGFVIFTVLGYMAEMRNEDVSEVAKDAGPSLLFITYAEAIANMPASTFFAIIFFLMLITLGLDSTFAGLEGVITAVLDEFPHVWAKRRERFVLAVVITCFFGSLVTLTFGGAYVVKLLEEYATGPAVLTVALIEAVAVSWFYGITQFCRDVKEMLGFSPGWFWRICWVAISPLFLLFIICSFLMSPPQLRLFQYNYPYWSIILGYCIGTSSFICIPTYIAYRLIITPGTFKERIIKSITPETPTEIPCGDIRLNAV

SMILES | IC50 [2, 8] | IC50 [2, 9] | IC50 [2, 11] | Estimated human (brain) concentration [3] | Human (serum/blood/plasma) concentration [4] | Brain partitioning factor (BPF) [5] | IC50 [6, 10] | IC50 [6, 11] | IC50 [6, 12] | IC50 [6, 13] | IC50 [6, 14] | IC50 [6, 15] | also measured
CCNC(C)C(=O)c1ccc(C)cc1 (stereo not drawn) [4-MECinternet] | > 1000 µM | > 1000 µM | 79 µM | – | – | – | – | – | – | – | – | – | IC50 (hDAT [1]; HEK 293 cells, 37°C, uptake at 12 min after drug exposure, value [CI], read-out: Transporter inhibition IC50, hDAT): 1.7 µM; IC50 [2, 10]: 79 µM; IC50 [2, 12]: 70 µM
CNC(C)Cc1ccc2c(c1)OCO2 (stereo not drawn) [MDMA, 3,4-methylenedioxymethamphetamine] | – | – | – | – | – | – | – | – | – | – | – | – | Increase in potency to inhibit hSERT (hSERT): threefold
CNC(C)C(=O)c1ccc2c(c1)OCO2 (stereo not drawn) [Methylone, 1-(1,3-benzodioxol-5-yl)-2-(methylamino)propan-1-one] | – | – | – | 0.01 to 81 µM | 0.01–18^a,d,g,h μM | 1.4–4.5^5,^–6,^7 | 266 µM | 323 µM | 244 µM | > 1000 µM | > 1000 µM | > 1000 µM | IC50 (hDAT [1]): 2 µM; IC50 (hNET): 1.7 µM; Reduction of potency to inhibit neuronal activity compared to MDMA ([6]; methylone versus MDMA, ref Zwartsen et al.): threefold; IC50 ([6]; prolonged exposure 4.5 h, read-out: Neuronal activity IC50, mean burst rate (MBR), prolonged): 322 µM; IC50 ([6]; prolonged exposure 4.5 h, read-out: Neuronal activity IC50, mean network burst rate (MNBR), prolonged): 362 µM; IC50 ([6]; prolonged exposure 4.5 h, read-out: Neuronal activity IC50, mean spike rate (MSR), prolonged): 283 µM
CCCC(C(=O)c1ccccc1)N1CCCC1 (stereo not drawn) [α-PVP, α-pyrrolidinovalerophenone] | – | – | – | 0.001 to 5.0 µM | 0.01–2.8^b,j,K μM | 0.1–1.8^4,8,9,10 | 33 µM | 33 µM | 26 µM | > 300 µM | > 300 µM | > 300 µM | IC50 (hDAT [7]): 0.2 µM; Increased potency to inhibit neuronal activity (MSR, MBR, and MNBR) compared to cathinones lacking the lengthened alkyl chain ([2]; acute and prolonged exposure): two to fourfold
CNC(C)C(=O)c1cccc(C)c1 (stereo not drawn) [3-MMCinternet] | > 1000 µM | > 1000 µM | 57 µM | – | – | – | – | – | – | – | – | – | –
